Laboratory results reported in patent US8835466B2, “Synthesis and uses of pyroglutamic acid derivatives” (Prodimed, S.A., priority 2006, dated 2014).

System: Ehrlich tumour cells (murine mammary adenocarcinoma)
Assay: Effect of isomers and BLAS on in vivo tumour growth, Ehrlich tumours (Example 9)
Design: species or system Balb/c mice
Conditions: for Tumour surface, overall values (Mean) / Tumour surface, overall values (Median) / Tumour volume, overall values (Mean) / Tumour volume, overall values (Median): 260 ng/mouse i.p. days 6, 7 and 14
Description: This assay was made in order to compare the effect of each stereoisomer on in vivo tumour growth in mice with the effect of the mixture of all of them challenged with Ehlrich tumours. The same products, equipment, reagents, doses, vehicle and route of administration as in example 8 were used.
Mice were inoculated with Ehrlich tumour cells. It was described as a murine mammary adenocarcinoma. Ehrlich tumour is a murine mammary carcinoma originally raised in an outbred mouse, and therefore it belongs to the so-called non-specific tumours (Subiza J L, Viñuela J E, Rodriguez R, Gil J, Figueredo M A, de la Concha. E G. Development of splenic natural suppressor (NS) cells in Ehrlich tumor bearing mice. Int J Cancer, 44:307 315; 1989). It may grow across histocompatibility barriers and therefore is not mouse strain specific (Carry P J, Prescott D M, Ogilvie G K. Resistance to Ehrlich ascites tumor in a strain of dystrophic mice. Cancer Res., 39:2139-2140; 1979).
Ehrlich cells were maintained in vitro by serial passages every 3-4 days. Cultures were performed with RPMI medium medium (RPMI, 10% foetal calf serum, 2 mM L-glutamine, non essential aminoacids, 1 mM sodium pyruvate, 20 mM HEPES, 80 μg/mL gentamycin; all of them were purchased from Sigma, St. Louis, Mo., USA) by seeding 5×10^6 cells onto 75 cm^2 culture flasks. Tumour cells collected from 48 hour cultures were used as source of cells for the studies described below.
Tumours were established by subcutaneous inoculation in the right hind flank. Mice (Balb/c) were inoculated with 0.2 mL containing 2×10^5 viable Ehrlich cells. The day of subcutaneous inoculation will be considered Day 0 of the test.
Mice were observed daily and the tumour size recorded twice a week. This was carried out by measuring two perpendicular diameters (L/W) with a calliper. These measures were used to obtain both tumour surface and volume: Tumour surface=L×W(mm^2) Tumour volume=L×W^2×½(mm^3)
Results were expressed as single values and/or as the mean±SD or median from each experimental group.
A case-control study was performed with treated and control mice in order to determine whether differences between BLAS or each diferent stereoisomer and administration of placebo were present. […] The U-test of Mann Withney was chosen for being one of the better known non-parametrical tests, anyway, results for this test are equivalent both to those of Wilcoxon's sum of ranges and Kruskal-Wallis two-groups test.

[1] = day 13 after tumour inoculation
[2] = day 16 after tumour inoculation
[3] = day 20 after tumour inoculation
[4] = day 23 after tumour inoculation
[5] = day 29 after tumour inoculation
[6] = day 31 after tumour inoculation
[7] = day 35 after tumour inoculation
[8] = day 38 after tumour inoculation
[9] = either in surface or volume, all days scored after the day 8th

Compound: Br.N[C@]1(C[n+]2ccccc2)C[C@H](C(=O)O)NC1=O.[Br-] (single isomer, unassigned; isomer 4) [isomer 4, 3S,5R-1-(3-Amino-5-carboxy-2-oxopyrrolidin-3-ylmethyl)pyridinium bromide hidrobromide]
- Inhibition of the in vivo growth of Ehrlich tumour cells, in words (260 ng i.p. days 6, 7 and 14): inhibit the in vivo growth
- Tumour surface, overall values (Mean) (day 0 after tumour inoculation): 0 mm^2
- Tumour surface, overall values (Median) (day 0 after tumour inoculation): 0 mm^2
- Tumour volume, overall values (Mean) (day 0 after tumour inoculation): 0 mm^3
- Tumour volume, overall values (Median) (day 0 after tumour inoculation): 0 mm^3
- Tumour surface, overall values (Mean) (day 8 after tumour inoculation): 3.37 mm^2
- Tumour surface, overall values (Median) (day 8 after tumour inoculation): 0 mm^2
- Tumour volume, overall values (Mean) (day 8 after tumour inoculation): 5.94 mm^3
- Tumour volume, overall values (Median) (day 8 after tumour inoculation): 0 mm^3
- Tumour surface, overall values (Mean) [1]: 12.44 mm^2
- Tumour surface, overall values (Median) [1]: 12.5 mm^2
- Tumour volume, overall values (Mean) [1]: 26.91 mm^3
- Tumour volume, overall values (Median) [1]: 22.75 mm^3
- Tumour surface, overall values (Mean) [2]: 20.19 mm^2
- Tumour surface, overall values (Median) [2]: 18 mm^2
- Tumour volume, overall values (Mean) [2]: 50.34 mm^3
- Tumour volume, overall values (Median) [2]: 36 mm^3
- Tumour surface, overall values (Mean) [3]: 31.31 mm^2
- Tumour surface, overall values (Median) [3]: 27.5 mm^2
- Tumour volume, overall values (Mean) [3]: 95.59 mm^3
- Tumour volume, overall values (Median) [3]: 68.75 mm^3
- Tumour surface, overall values (Mean) [4]: 43.06 mm^2
- Tumour surface, overall values (Median) [4]: 39 mm^2
- Tumour volume, overall values (Mean) [4]: 156.53 mm^3
- Tumour volume, overall values (Median) [4]: 117 mm^3
- Tumour surface, overall values (Mean) [5]: 52.94 mm^2
- Tumour surface, overall values (Median) [5]: 45 mm^2
- Tumour volume, overall values (Mean) [5]: 214.91 mm^3
- Tumour volume, overall values (Median) [5]: 135 mm^3
- Tumour surface, overall values (Mean) [6]: 63.12 mm^2
- Tumour surface, overall values (Median) [6]: 48.5 mm^2
- Tumour volume, overall values (Mean) [6]: 274.94 mm^3
- Tumour volume, overall values (Median) [6]: 157.75 mm^3
- Tumour surface, overall values (Mean) [7]: 76.31 mm^2
- Tumour surface, overall values (Median) [7]: 52.5 mm^2
- Tumour volume, overall values (Mean) [7]: 379.72 mm^3
- Tumour volume, overall values (Median) [7]: 183.75 mm^3
- Tumour surface, overall values (Mean) [8]: 91.56 mm^2
- Tumour surface, overall values (Median) [8]: 68 mm^2
- Tumour volume, overall values (Mean) [8]: 504.22 mm^3
- Tumour volume, overall values (Median) [8]: 272 mm^3
- Differences in Ehrlich tumour growth rate vs. placebo, statistical significance p (Mann-Whitney U test) [9]: < 0.05
- Ehrlich tumour growth vs. placebo, tendency p (surface, day 35th): 0.061
- Ehrlich tumour growth vs. placebo, tendency p (surface, day 38th): 0.08
- Ehrlich tumour growth vs. placebo, tendency p (volume, days 35th and 38th (both of them)): 0.102

Compound: Br.N[C@@]1(C[n+]2ccccc2)C[C@@H](C(=O)O)NC1=O.[Br-] (single isomer, unassigned; isomer 1) [isomer 1, 3R,5S-1-(3-Amino-5-carboxy-2-oxopyrrolidin-3-ylmethyl)pyridinium bromide hidrobromide]
- Inhibition of the in vivo growth of Ehrlich tumour cells, in words (260 ng i.p. days 6, 7 and 14): inhibit the in vivo growth
- Tumour surface, overall values (Mean) (day 0 after tumour inoculation): 0 mm^2
- Tumour surface, overall values (Median) (day 0 after tumour inoculation): 0 mm^2
- Tumour volume, overall values (Mean) (day 0 after tumour inoculation): 0 mm^3
- Tumour volume, overall values (Median) (day 0 after tumour inoculation): 0 mm^3
- Tumour surface, overall values (Mean) (day 8 after tumour inoculation): 5.69 mm^2
- Tumour surface, overall values (Median) (day 8 after tumour inoculation): 2 mm^2
- Tumour volume, overall values (Mean) (day 8 after tumour inoculation): 9.91 mm^3
- Tumour volume, overall values (Median) (day 8 after tumour inoculation): 2 mm^3
- Tumour surface, overall values (Mean) [1]: 13.69 mm^2
- Tumour surface, overall values (Median) [1]: 16 mm^2
- Tumour volume, overall values (Mean) [1]: 31.34 mm^3
- Tumour volume, overall values (Median) [1]: 32 mm^3
- Tumour surface, overall values (Mean) [2]: 20.875 mm^2
- Tumour surface, overall values (Median) [2]: 20.5 mm^2
- Tumour volume, overall values (Mean) [2]: 53.12 mm^3
- Tumour volume, overall values (Median) [2]: 47.25 mm^3
- Tumour surface, overall values (Mean) [3]: 32.37 mm^2
- Tumour surface, overall values (Median) [3]: 27.5 mm^2
- Tumour volume, overall values (Mean) [3]: 105.19 mm^3
- Tumour volume, overall values (Median) [3]: 68.75 mm^3
- Tumour surface, overall values (Mean) [4]: 42.12 mm^2
- Tumour surface, overall values (Median) [4]: 39.5 mm^2
- Tumour volume, overall values (Mean) [4]: 160.5 mm^3
- Tumour volume, overall values (Median) [4]: 123.25 mm^3
- Tumour surface, overall values (Mean) [5]: 50 mm^2
- Tumour surface, overall values (Median) [5]: 39.5 mm^2
- Tumour volume, overall values (Mean) [5]: 202.19 mm^3
- Tumour volume, overall values (Median) [5]: 123.25 mm^3
- Tumour surface, overall values (Mean) [6]: 57 mm^2
- Tumour surface, overall values (Median) [6]: 46.5 mm^2
- Tumour volume, overall values (Mean) [6]: 249.06 mm^3
- Tumour volume, overall values (Median) [6]: 147.75 mm^3
- Tumour surface, overall values (Mean) [7]: 68.87 mm^2
- Tumour surface, overall values (Median) [7]: 52.5 mm^2
- Tumour volume, overall values (Mean) [7]: 342.94 mm^3
- Tumour volume, overall values (Median) [7]: 173.25 mm^3
- Tumour surface, overall values (Mean) [8]: 78.81 mm^2
- Tumour surface, overall values (Median) [8]: 53 mm^2
- Tumour volume, overall values (Mean) [8]: 425.91 mm^3
- Tumour volume, overall values (Median) [8]: 191 mm^3
- Differences in Ehrlich tumour growth rate vs. placebo, statistical significance p (Mann-Whitney U test) (either in surface or volume, all days scored after the day 13th): < 0.05

Compound: Br.N[C@]1(C[n+]2ccccc2)C[C@@H](C(=O)O)NC1=O.[Br-] (single isomer, unassigned; isomer 3) [isomer 3, 3S,5S-1-(3-Amino-5-carboxy-2-oxopyrrolidin-3-ylmethyl)pyridinium bromide hidrobromide]
- Inhibition of the in vivo growth of Ehrlich tumour cells, in words (260 ng i.p. days 6, 7 and 14): inhibit the in vivo growth
- Inhibitory effect on Ehrlich tumour growth compared among treatments, in words (260 ng i.p. days 6, 7 and 14): highest inhibitory effect
- Tumour surface, overall values (Mean) (day 0 after tumour inoculation): 0 mm^2
- Tumour surface, overall values (Median) (day 0 after tumour inoculation): 0 mm^2
- Tumour volume, overall values (Mean) (day 0 after tumour inoculation): 0 mm^3
- Tumour volume, overall values (Median) (day 0 after tumour inoculation): 0 mm^3
- Tumour surface, overall values (Mean) (day 8 after tumour inoculation): 3.62 mm^2
- Tumour surface, overall values (Median) (day 8 after tumour inoculation): 0 mm^2
- Tumour volume, overall values (Mean) (day 8 after tumour inoculation): 6 mm^3
- Tumour volume, overall values (Median) (day 8 after tumour inoculation): 0 mm^3
- Tumour surface, overall values (Mean) [1]: 10.94 mm^2
- Tumour surface, overall values (Median) [1]: 9 mm^2
- Tumour volume, overall values (Mean) [1]: 23.53 mm^3
- Tumour volume, overall values (Median) [1]: 13.5 mm^3
- Tumour surface, overall values (Mean) [2]: 16.5 mm^2
- Tumour surface, overall values (Median) [2]: 16 mm^2
- Tumour volume, overall values (Mean) [2]: 37.12 mm^3
- Tumour volume, overall values (Median) [2]: 32 mm^3
- Tumour surface, overall values (Mean) [3]: 24.12 mm^2
- Tumour surface, overall values (Median) [3]: 20 mm^2
- Tumour volume, overall values (Mean) [3]: 65.12 mm^3
- Tumour volume, overall values (Median) [3]: 40 mm^3
- Tumour surface, overall values (Mean) [4]: 32.25 mm^2
- Tumour surface, overall values (Median) [4]: 25 mm^2
- Tumour volume, overall values (Mean) [4]: 100.44 mm^3
- Tumour volume, overall values (Median) [4]: 62.5 mm^3
- Tumour surface, overall values (Mean) [5]: 42.94 mm^2
- Tumour surface, overall values (Median) [5]: 27.5 mm^2
- Tumour volume, overall values (Mean) [5]: 156.34 mm^3
- Tumour volume, overall values (Median) [5]: 68.75 mm^3
- Tumour surface, overall values (Mean) [6]: 53.37 mm^2
- Tumour surface, overall values (Median) [6]: 36 mm^2
- Tumour volume, overall values (Mean) [6]: 213.31 mm^3
- Tumour volume, overall values (Median) [6]: 100.5 mm^3
- Tumour surface, overall values (Mean) [7]: 66 mm^2
- Tumour surface, overall values (Median) [7]: 43 mm^2
- Tumour volume, overall values (Mean) [7]: 293.87 mm^3
- Tumour volume, overall values (Median) [7]: 135.5 mm^3
- Tumour surface, overall values (Mean) [8]: 79.37 mm^2
- Tumour surface, overall values (Median) [8]: 49.5 mm^2
- Tumour volume, overall values (Mean) [8]: 387.69 mm^3
- Tumour volume, overall values (Median) [8]: 164.25 mm^3
- Differences in Ehrlich tumour growth rate vs. placebo, statistical significance p (Mann-Whitney U test) [9]: < 0.05
- Differences in Ehrlich tumour growth rate BLAS vs. isomer 3, statistical significance p (Mann-Whitney U test) (either in surface or volume, days 13th, 16th, 20th and 23th): < 0.05
